Active and inactive are the calls of the source.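 The calls were made as follows: active = fitted concentration giving half of the maximal binding block below 66 µM; inactive = the rest.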
Biological target: anti-desmoglein 3 scFv antibody binding to human desmoglein 3 (DSG3)
Test: blockers of pemphigus antibody–desmoglein 3 interaction – biochemical, DSG3-coupled beads, scFv-GFP, flow cytometry, Cherry Pick 1, dose response (AID 602251)

| SMILES | EC50 | binding response, lower = inhibition (at 66.1 µM (top of the series)) |
| --- | --- | --- |
| O=C(O)c1cccc2c1NC(C(=O)O)C1CC(Sc3ccccc3[N+](=O)[O-])C(Cl)C21 (configuration not stated) | 29 µM |  |
| Cc1cc(=O)oc2c(C)c(OCC(=O)NCc3ccccn3)ccc12 |  | inactive |

Reference: PubChem BioAssay AID602251 (NMMLSC, 2012)
